Columns and labels:
[1] = system: human ovarian cancer strain OV7; format: cell-based
Protocol: (§1) A test compound was dispensed into a U-bottom 384-well plate as 40 nL serially diluted dimethyl sulfoxide solutions using a liquid handler Echo (LABCYTE). As for human ovarian cancer strain OV7 (ECACC), a cell suspension was prepared so as to have 250 cells/40 µL in a DMEM/Ham's F-12 medium (Nacalai Tesque) supplemented with 5% fetal bovine serum (Sigma), 0.5 µg/mL hydrocortisone, and 10 µg/mL insulin. This cell suspension was dispensed in an amount of 40 µL per well into a plate containing the test compound, and cultured at 37°C in a 5% carbon dioxide gas incubator. Seven days later, 20 µL of CellTiter-Glo (registered trademark) (Promega) was added to each well and luminescence was measured.

[2] = molecular target: GDP-bound KRAS wild-type protein (Homo sapiens, UniProt P01116); experiment: Binding to KRAS by surface plasmon resonance (SPR), dissociation constant KD; conditions: Single Cycle Kinetics
GDP-bound KRAS wild-type protein, sequence (P01116 1-188 isoform P01116-2): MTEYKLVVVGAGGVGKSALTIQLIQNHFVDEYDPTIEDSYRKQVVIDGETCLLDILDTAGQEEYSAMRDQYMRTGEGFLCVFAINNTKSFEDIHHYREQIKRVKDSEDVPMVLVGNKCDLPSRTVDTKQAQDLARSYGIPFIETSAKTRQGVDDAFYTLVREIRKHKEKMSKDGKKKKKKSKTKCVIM
Summary of the method: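 GDP-bound biotin-Avi RAS captured at ~100–300 RU, 30°C, pH 7.4 HBS containing 10 µM GDP, 10 mM MgCl2, 1 mM DTT, 0.01% Tween 20 and 4% DMSO. KD by 1:1 fitting.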

[3] = system: human pancreatic cancer strain KP4; format: cell-based
Protocol: as §1, with “human pancreatic” for “human ovarian”, “strain KP4 (Institute of Physical and Chemical Research),” for “strain OV7 (ECACC),”, “have 500” for “have 250”, “with 10%” for “with 5%”, “serum (Sigma).” for “serum (Sigma), 0.5 µg/mL hydrocortisone, and 10 µg/mL insulin.”

[4] = system: human lung cancer strain NCI-H441; format: cell-based
Summary of the method: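 Readout: […] after the ATP-based reagent. Compound: serial dilutions in dimethyl sulfoxide.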

[5] = system: human bladder cancer strain UM-UC-3; format: cell-based
Protocol: A test compound was dispensed into a U-bottom 384-well plate as 40 nL serially diluted dimethyl sulfoxide solutions using a liquid handler Echo (LABCYTE). As for human bladder cancer strain UM-UC-3 (ATCC), a cell suspension was prepared so as to have 250 cells/40 µL in an MEM medium (Nacalai Tesque) supplemented with 10% fetal bovine serum (Sigma), an MEM non-essential amino acids solution (100X), and 1 mmol/L sodium pyruvate. This cell suspension was dispensed in an amount of 40 µL per well into a plate containing the test compound, and cultured at 37°C in a 5% carbon dioxide gas incubator. Seven days later, 20 µL of CellTiter-Glo (registered trademark) (Promega) was added to each well and luminescence was measured. […]

[6] = system: human colorectal cancer strain GP2d; format: cell-based
Protocol: (§2) A test compound was dispensed into a U-bottom 384-well plate as 40 nL serially diluted dimethyl sulfoxide solutions using a liquid handler Echo (LABCYTE). As for human colorectal cancer strain GP2d (ECACC), a cell suspension was prepared so as to have 500 cells/40 µL in a Dulbecco's modified Eagle medium supplemented with 10% fetal bovine serum (Sigma). This cell suspension was dispensed in an amount of 40 µL per well into a plate containing the test compound, and cultured at 37°C in a 5% carbon dioxide gas incubator. Seven days later, 20 µL of CellTiter-Glo (registered trademark) (Promega) was added to each well and luminescence was measured.

[7] = system: human gastric cancer strain SNU-1; format: cell-based
Protocol: A test compound was dispensed into a U-bottom 384-well plate as 40 nL serially diluted dimethyl sulfoxide solutions using a liquid handler Echo (LABCYTE). As for human gastric cancer strain SNU-1 (ATCC), a cell suspension was prepared so as to have 250 cells/40 µL in an RPMI-1640 medium (Sigma) supplemented with 10% fetal bovine serum (Sigma), a 2.5 g/L D-(+)-glucose solution, 10 mmol/L HEPES, and 1 mmol/L sodium pyruvate. This cell suspension was dispensed in an amount of 40 µL per well into a plate containing the test compound, and cultured at 37°C in a 5% carbon dioxide gas incubator. Seven days later, 20 µL of CellTiter-Glo (registered trademark) (Promega) was added to each well and luminescence was measured.

HRAS wild-type protein = HRAS wild-type protein (Homo sapiens, UniProt P01112); experiment: Binding to HRAS by surface plasmon resonance (SPR), KD and KD ratio to KRAS
HRAS wild-type protein, sequence (P01112 whole entry): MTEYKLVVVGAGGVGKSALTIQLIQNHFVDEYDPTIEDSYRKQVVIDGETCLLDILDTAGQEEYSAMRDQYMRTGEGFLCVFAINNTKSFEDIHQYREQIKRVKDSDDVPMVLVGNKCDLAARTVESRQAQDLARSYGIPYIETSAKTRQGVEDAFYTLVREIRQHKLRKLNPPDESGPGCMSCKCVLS
Summary of the method: (§3)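 Affinity is measured by surface plasmon resonance at 30°C against captured, GDP-loaded RAS carrying a biotinylated Avi tag. Compounds are titrated by single-cycle kinetics, and KD comes from a 1:1 fit.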

[8] = molecular target: GDP-bound NRAS wild-type protein (Homo sapiens, UniProt P01111); experiment: Binding to NRAS by surface plasmon resonance (SPR), KD and KD ratio to KRAS
GDP-bound NRAS wild-type protein, sequence (P01111 whole entry): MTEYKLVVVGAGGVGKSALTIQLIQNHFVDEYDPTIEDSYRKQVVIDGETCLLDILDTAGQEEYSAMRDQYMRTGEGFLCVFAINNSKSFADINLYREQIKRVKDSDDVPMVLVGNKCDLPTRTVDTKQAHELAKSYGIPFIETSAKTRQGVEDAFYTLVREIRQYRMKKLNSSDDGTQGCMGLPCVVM
Summary of the method: as §3

[9] = system: human gastric cancer strain GSU; format: cell-based
Protocol: as §2, with “gastric” for “colorectal”, “GSU (Institute of Physical and Chemical Research),” for “GP2d (ECACC),”, “200” for “500”, “an RPMI-1640” for “a Dulbecco's modified Eagle”, “medium (Sigma)” for “medium”

[10] = ratio of KD for HRAS wild-type protein to KD for KRAS
[11] = ratio of KD for GDP-bound NRAS wild-type protein to KD for KRAS

IC50 [1] | Kd [2] | IC50 [3] | IC50 [4] | IC50 [5] | IC50 [6] | IC50 [7] | IC50 [9] | SMILES | HRAS /KRAS (HRAS wild-type protein; [10]) | NRAS /KRAS [8, 11] | HRAS /KRAS (HRAS wild-type protein; ratio of the KD value with respect to HRAS wild-type protein to the KD value with respect to KRAS) | NRAS /KRAS ([8]; ratio of the KD value with respect to GDP-bound NRAS wild-type protein to the KD value with respect to KRAS)
24.8 nM | 0.12 nM | 25.5 nM | 13.6 nM | 8.7 nM | 9.1 nM | 8.2 nM | 2.1 nM | CCO[C@@H]1C[C@H]2C(=O)NC3(CCCC3)C(=O)N(C)[C@@H](C3CCCC3)C(=O)N(C)[C@H](C(=O)N(C)C)CC(=O)N(C)[C@@H]([C@@H](C)OC)C(=O)N[C@@H]([C@@H](C)CC)C(=O)N(C)CC(=O)N(C)[C@H]3C/C=C\CCN(C3=O)[C@@H](Cc3ccc(C)cc3)C(=O)N(C)CC(=O)N[C@@H](CCc3cc(F)c(C(F)(F)F)c(F)c3)C(=O)N2C1 [PP3481, (2S,8S,12R,14S,20S,23S,27S,30S,36S,38Z)-20-cyclopentyl-8-[2-[3,5-difluoro-4-(trifluoromethyl)phenyl]ethyl]-12-ethoxy-27-[(1R)-1-methoxyethyl]-N,N,4,19,22,26,32,35-octamethyl-30-[(1S)-1-methylpropyl]-3,6,9,15,18,21,25,28,31,34,42-undecaoxo-2-(p-tolylmethyl)spiro[1,4,7,10,16,19,22,26,29,32,35-undecazatricyclo[34.5.1.0^10,14]dotetracont-38-ene-17,1'-cyclopentane]-23-carboxamide] | A (a compound having 10 or more and less than 20 is denoted as A) | A (a compound having 10 or more and less than 20 is denoted as A) | – | –
23.6 nM | – | 16.8 nM | 11.1 nM | 11.5 nM | 13.7 nM | 6.6 nM | 1.2 nM | CCO[C@@H]1C[C@H]2C(=O)NC3(CCCC3)C(=O)N(C)[C@@H](C3CCCC3)C(=O)N(C)[C@H](C(=O)N(C)C)CC(=O)N(C)[C@@H](CC(C)C)C(=O)N[C@@H]([C@@H](C)CC)C(=O)N(C)CC(=O)N(C)[C@H]3C/C(F)=C\CCN(C3=O)[C@@H](Cc3ccc(C(F)(F)F)cc3)C(=O)N(C)CC(=O)N[C@@H](CCc3cc(F)c(C(F)(F)F)c(F)c3)C(=O)N2C1 [PP3510, (2S,8S,12R,14S,20S,23S,27S,30S,36S,38E)-20-cyclopentyl-8-[2-[3,5-difluoro-4-(trifluoromethyl)phenyl]ethyl]-12-ethoxy-38-fluoro-27-isobutyl-N,N,4,19,22,26,32,35-octamethyl-30-[(1S)-1-methylpropyl]-3,6,9,15,18,21,25,28,31,34,42-undecaoxo-2-[[4-(trifluoromethyl)phenyl]methyl]spiro[1,4,7,10,16,19,22,26,29,32,35-undecazatricyclo[34.5.1.0^10,14]dotetracont-38-ene-17,1'-cyclopentane]-23-carboxamide] | B (a compound having 3 or more and less than 10 is denoted as B) | B (a compound having 3 or more and less than 10 is denoted as B) | – | –

More lines, now with the values behind:

SMILES | IC50 [1] | Kd [2] | IC50 [3] | IC50 [4] | IC50 [5] | IC50 [6] | IC50 [7] | IC50 [9] | HRAS /KRAS (HRAS wild-type protein; [10]) | NRAS /KRAS [8, 11] | HRAS /KRAS (HRAS wild-type protein; ratio of the KD value with respect to HRAS wild-type protein to the KD value with respect to KRAS) | NRAS /KRAS ([8]; ratio of the KD value with respect to GDP-bound NRAS wild-type protein to the KD value with respect to KRAS)
CCC[C@H]1C(=O)N[C@@H]([C@@H](C)CC)C(=O)N2CCC[C@H]2C(=O)N(C)[C@H]2C/C=C\CCN(C2=O)[C@@H](Cc2ccc(C(F)(F)F)cc2)C(=O)N(C)CC(=O)N[C@@H](CCc2ccc(C(F)(F)F)c(OC)c2)C(=O)N2C[C@H](OCC)C[C@H]2C(=O)N(C)C2(CCC2)C(=O)N(C)[C@@H](C2CCCC2)C(=O)N(C)[C@H](C(=O)N(C)C)CC(=O)N1C [PP2320, (1S,4S,10S,13S,17S,20S,26S,28R,32S,38S,42Z)-20-cyclopentyl-28-ethoxy-32-[2-[3-methoxy-4-(trifluoromethyl)phenyl]ethyl]-N,N,2,14,18,21,24,36-octamethyl-10-[(1S)-1-methylpropyl]-3,9,12,15,19,22,25,31,34,37,45-undecaoxo-13-propyl-38-[[4-(trifluoromethyl)phenyl]methyl]spiro[2,8, 11,14,18,21,24,30,33,36,39-undecazatetracyclo[37.5.1.0^4,8.0^26,30]pentatetracont-42-ene-23,1'-cyclobutane]-17-carboxamide] | 8.7 nM | – | 4.8 nM | 0.6 nM | 1.3 nM | 3.1 nM | 5.6 nM | 1.2 nM | – | – | A (a compound having 10 or more and less than 20 is denoted as A) | A (a compound having 10 or more and less than 20 is denoted as A)
CCO[C@@H]1C[C@H]2C(=O)OC3(CCC3)C(=O)N(C)[C@@H](C3CCCC3)C(=O)N(C)[C@H](C(=O)N(C)C)CC(=O)N(C)[C@@H]([C@@H](C)OC)C(=O)N[C@@H]([C@@H](C)CC)C(=O)N3CCC[C@H]3C(=O)N(C)[C@H]3C/C=C\CCN(C3=O)[C@@H](Cc3ccc(C(F)(F)F)cc3)C(=O)N(C)CC(=O)N[C@@H](CCc3ccc(C(F)(F)F)c(OC)c3)C(=O)N2C1 [PP3374] | 15.9 nM | 0.41 nM | 8.2 nM | 5.9 nM | 6.3 nM | 6.9 nM | 7.4 nM | 1.9 nM | A (a compound having 10 or more and less than 20 is denoted as A) | A (a compound having 10 or more and less than 20 is denoted as A) | – | –
CCO[C@@H]1C[C@H]2C(=O)NC3(CCCC3)C(=O)N(C)[C@@H](C3CCCC3)C(=O)N(C)[C@H](C(=O)N(C)C)CC(=O)N(C)[C@@H](CC(C)C)C(=O)N[C@@H]([C@@H](C)CC)C(=O)N(C)CC(=O)N(C)[C@H]3C/C=C\CCN(C3=O)[C@@H](Cc3ccc(C(F)(F)F)cc3)C(=O)N(C)CC(=O)N[C@@H](CCc3cc(F)c(C(F)(F)F)c(F)c3)C(=O)N2C1 [PP1105, (2S,8S,12R,14S,20S,23S,27S,30S,36S,38Z)-20-cyclopentyl-8-[2-[3,5-difluoro-4-(trifluoromethyl)phenyl]ethyl]-12-ethoxy-27-isobutyl-N,N,4,19,22,26,32,35-octamethyl-30-[(1S)-1-methylpropyl]-3,6,9,15,18,21,25,28,31,34,42-undecaoxo-2-[[4-(trifluoromethyl)phenyl]methyl]spiro[1,4,7,10,16,19,22,26,29,32,35-undecazatricyclo[34.5.1.0^10,14]dotetracont-38-ene-17,1'-cyclopentane]-23-carboxamide] | 8.1 nM | 0.07 nM | 3.1 nM | 12 nM | 2.1 nM | 2.9 nM | 2.7 nM | 0.3 nM | A (a compound having 10 or more and less than 20 is denoted as A) | A (a compound having 10 or more and less than 20 is denoted as A) | – | –

— patent publication EP4603105A1, “PHARMACEUTICAL COMPOSITION CONTAINING CYCLIC COMPOUND HAVING SELECTIVE KRAS INHIBITORY EFFECT AGAINST HRAS AND NRAS” (CHUGAI SEIYAKU KABUSHIKI KAISHA, priority 2022, dated 2024)
